Source: patent publication US20030199558A1, “Hydroxamic acid and its derivatives as inhibitors of melanocyte tyrosinase for topical skin lighteners” (Integriderm, Inc., priority 2001, published 2003)
Converted amounts (≈) assume the structure as drawn. “And” between values parts separate entries of the source, which are not always exact repeats. Equal entries are not always repeated. Where two headings read alike, the source gives them in different places.

How the values were obtained:
[1] = tested on: mammalian melanocyte culture; assay: mammalian melanocyte culture toxicity assay; format: cell-based, mouse
Excerpt: To determine cytotoxicity (and/or cytostasis), crystal violet or other staining methods may be used to quantify adherent cell numbers following a period of treatment by an agent.

mammalian tyrosinase [2] = biological target: T1, mammalian tyrosinase (Mus musculus, UniProt P11344); assay: cell-free mammalian tyrosinase enzyme assay; format: biochemical; details: cell-free enzyme extract; read-out: E: concentration of compound that produces 50% inhibition in the cell-free mammalian tyrosinase enzyme assay
T1 construct: Cellular lysates of Mel-Ab cells may be used as tyrosinase enzyme preparations; endogenous in cells; host or cells: Mel-Ab mouse melanocytes (cell lysate)
T1 sequence (P11344 19-533): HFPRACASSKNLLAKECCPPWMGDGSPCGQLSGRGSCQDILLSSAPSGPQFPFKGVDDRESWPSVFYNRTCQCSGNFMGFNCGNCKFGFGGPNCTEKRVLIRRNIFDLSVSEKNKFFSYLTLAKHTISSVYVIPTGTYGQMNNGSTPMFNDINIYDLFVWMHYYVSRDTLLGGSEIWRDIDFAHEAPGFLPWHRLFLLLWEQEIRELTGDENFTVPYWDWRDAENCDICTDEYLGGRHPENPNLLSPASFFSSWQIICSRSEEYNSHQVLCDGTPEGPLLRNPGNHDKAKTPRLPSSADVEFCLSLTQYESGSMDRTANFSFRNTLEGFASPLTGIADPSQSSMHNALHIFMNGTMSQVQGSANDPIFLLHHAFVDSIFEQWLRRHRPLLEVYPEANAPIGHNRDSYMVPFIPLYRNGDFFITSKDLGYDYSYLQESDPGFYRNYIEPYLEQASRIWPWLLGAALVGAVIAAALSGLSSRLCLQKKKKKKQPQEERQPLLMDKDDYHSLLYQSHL
Excerpt: (§1) In the present invention, one or more of three in vitro bioassays can be utilized to evaluate the efficacy and toxicity of candidate skin-lightening compounds. The three bioassays characterize the compounds with regard to mammalian tyrosinase enzyme inhibition (cell free), pigmentation in cultured melanocyte cells, and cytotoxicity of mammalian cultured cells. Both cell-based pigmentation and cell-free enzymatic assays have been developed using the mammalian melanocyte cell line, Mel-Ab, a C57BL/6 mouse-derived cell line that produces high levels of melanin. A distinct advantage of this approach is that humans share substantial sequence similarities in their genes (DNA) and proteins (such as tyrosinase) with mice, relative to non-mammalian species (e.g., mushrooms). So, in vitro mouse Mel-Ab melanocytes can serve as adequate surrogates for human melanocytes and Mel-Ab-derived tyrosinase may substitute for the human enzyme for many pharmacologic purposes.
(§2) These adherent murine melanocytes are grown on tissue culture plastic in medium supplemented with fetal bovine serum, 12-O-tetradecanoylphorbol-13-acetate (TPA) to stimulate cell division via down-regulation of protein kinase C, [22, 23] and cholera toxin to stimulate adenylate cyclase activity in the absence of α-MSH. Cellular lysates of Mel-Ab cells may be used as tyrosinase enzyme preparations. Multi-well plate assays have been validated for enzyme inhibition (e.g., DOPA oxidation by calorimetric measurement or radiolabeled substrate incorporation into melanin) and for pigmentation assays on cultured Mel-Ab cells. After 4-6 days of treatment of cultured cells, melanin content is determined using a spectrophotometer at 400+ nm. This assay can detect an apparent loss in pigmentation resulting from either inhibition of de novo synthesis (e.g. via inhibition of tyrosinase, or the adenylate cyclase pathway, or another pathway) or a cytostatic/cytotoxic mechanism. It is therefore a broad primary screen. It is used in parallel with the tyrosinase enzymatic assay to determine whether an inhibitor of pigmentation at the cellular level is acting primarily at the enzyme level.
A first class of compounds based upon the template compound benzohydroxamic acid were tested for tyrosinase inhibition by methods described in Curto, E. V., et al. (1999). Results of the tests are given in Examples 1-5.
(§3) Inhibition [μM] as measured in three assays. Here “E” “E” [μM] is the concentration of compound that produces 50% inhibition in the cell-free mammalian tyrosinase enzyme assay is the concentration of compound that produces 50% inhibition in the cell-free mammalian tyrosinase enzyme assay. “P” represents the concentration of compound that produces 50% inhibition in the mammalian Mel Ab melanocyte culture pigment assay system. “T” is the concentration of compound that results in 50% reduction in cell number in the mammalian melanocyte culture toxicity assay system.

Mel Ab melanocyte [3] = assay: mammalian Mel Ab melanocyte culture pigment assay; format: cell-based, mouse; details: read-out: P: concentration of compound that produces 50% inhibition in the mammalian Mel Ab melanocyte culture pigment assay
Excerpt: as §1, §2, §3

mammalian tyrosinase [4] = biological target: T1, mammalian tyrosinase; details: cited from earlier work
Mel Ab melanocyte [5] = details: cited from earlier work
[6] = tested on: mammalian melanocyte culture; details: cited from earlier work

SMILES: Cc1ccc(C(=O)NO)cc1N [ID-499, 13-Amino-4-methyl-benzohydroxamic acid]
- T: concentration of compound that results in 50% reduction in cell number in the mammalian melanocyte culture toxicity assay [1]: 747 µM
- IC50 (mammalian tyrosinase [2]): 6.4 µM
- IC50 (Mel Ab melanocyte [3]; Mus musculus, Mel-Ab): 177 µM

SMILES: Cc1cccc(C(=O)NO)c1 [ID-481, 3-Methylbenzohydroxamic acid]
- T: concentration of compound that results in 50% reduction in cell number in the mammalian melanocyte culture toxicity assay [1]: 522 µM
- IC50 (mammalian tyrosinase [2]): < 0.25 µM
- IC50 (Mel Ab melanocyte [3]; Mus musculus, Mel-Ab): 60 µM

SMILES: COc1ccccc1C(=O)NO [ID-483, 2-Methoxybenzohydroxamic acid]
- T: concentration of compound that results in 50% reduction in cell number in the mammalian melanocyte culture toxicity assay [1]: 900 µM
- IC50 (mammalian tyrosinase [2]): 32 µM
- IC50 (Mel Ab melanocyte [3]; Mus musculus, Mel-Ab): 807 µM

SMILES: COC(=O)c1cc(O)ccc1O [methyl gentisate]
- IC50 (mammalian tyrosinase [4]; Curto et al. (1999), read-out: IC50 against tyrosinase in cell-free assays (converted)): 67 µM and 66.6 µM
- IC50 in pigmentation inhibition in melanocyte cell cultures (Mel Ab melanocyte [5]; Curto et al. (1999)): 30.9 ± 5 µg/mL (≈ 184 µM)
- IC50 (Mel Ab melanocyte [5]; Curto et al. (1999), read-out: IC50 in pigmentation inhibition in melanocyte cell cultures): 184 µM
- melanocyte cytotoxicity IC50 ([6]; Curto et al. (1999)): 118.7 ± 12 µg/mL
- IC50 ([6]; Curto et al. (1999), read-out: melanocyte cytotoxicity IC50): 707 µM

SMILES: Oc1ccc(O)cc1 [hydroquinone]
- enzymatic inhibition (mammalian tyrosinase [4]): minimal enzymatic inhibition
- IC50 on Mel-Ab culture (Mel Ab melanocyte [5]; positive control, owing to cytotoxicity and not inhibition of pigmentation per se): low micrograms per milliliter range
- melanocyte cytotoxicity [6]: potent melanocyte cytotoxicity

SMILES: CC(=O)Nc1cccc(C(=O)NO)c1 [ID-486, 3-Acetamidobenzohydroxamic acid]
- T: concentration of compound that results in 50% reduction in cell number in the mammalian melanocyte culture toxicity assay [1]: >1000 µM
- IC50 (mammalian tyrosinase [2]): 5.3 µM
- IC50 (Mel Ab melanocyte [3]; Mus musculus, Mel-Ab): 369 µM

SMILES: Nc1cccc(C(=O)NO)c1 [ID-461, 3-Aminobenzohydroxamic acid]
- T: concentration of compound that results in 50% reduction in cell number in the mammalian melanocyte culture toxicity assay [1]: >1000 µM
- IC50 (mammalian tyrosinase [2]): 4 µM
- IC50 (Mel Ab melanocyte [3]; Mus musculus, Mel-Ab): 225 µM

SMILES: COc1cccc(C(=O)NO)c1 [ID-478, 3-Methoxybenzohydroxamic acid]
- T: concentration of compound that results in 50% reduction in cell number in the mammalian melanocyte culture toxicity assay [1]: 580 µM
- IC50 (mammalian tyrosinase [2]): 0.91 µM
- IC50 (Mel Ab melanocyte [3]; Mus musculus, Mel-Ab): 148 µM

SMILES: O=C(NO)c1ccccc1 [ID-357, Benzohydroxamic acid]
- T: concentration of compound that results in 50% reduction in cell number in the mammalian melanocyte culture toxicity assay [1]: 64 µM
- IC50 (mammalian tyrosinase [2]): 0.82 µM
- IC50 (Mel Ab melanocyte [3]; Mus musculus, Mel-Ab): 64 µM

SMILES: Nc1ccc(C(=O)NO)cc1 [ID-476, 4-Aminobenzohydroxamic acid]
- T: concentration of compound that results in 50% reduction in cell number in the mammalian melanocyte culture toxicity assay [1]: 550 µM
- IC50 (mammalian tyrosinase [2]): 0.34 µM
- IC50 (Mel Ab melanocyte [3]; Mus musculus, Mel-Ab): 64 µM

SMILES: Nc1ccccc1C(=O)NO [ID-318, 2-Aminobenzohydroxamic acid]
- T: concentration of compound that results in 50% reduction in cell number in the mammalian melanocyte culture toxicity assay [1]: 600 µM
- IC50 (mammalian tyrosinase [2]): 19 µM
- IC50 (Mel Ab melanocyte [3]; Mus musculus, Mel-Ab): 431 µM

SMILES: COc1ccc(C(=O)N[O-])cc1.[K+] [ID-479, Potassium salt of 4-methoxybenzohydroxamic acid]
- T: concentration of compound that results in 50% reduction in cell number in the mammalian melanocyte culture toxicity assay [1]: 64 µM
- IC50 (mammalian tyrosinase [2]): 1.67 µM
- IC50 (Mel Ab melanocyte [3]): 43 µM

SMILES: CC(=O)c1ccc(O)c(C(=O)NO)c1 [ID-474]
- T: concentration of compound that results in 50% reduction in cell number in the mammalian melanocyte culture toxicity assay [1]: >1000 µM
- IC50 (mammalian tyrosinase [2]): 51 µM
- IC50 (Mel Ab melanocyte [3]; Mus musculus, Mel-Ab): > 1000 µM

SMILES: COc1ccc(C(=O)NO)cc1OC [ID-456, 3,4-Dimethoxybenzohydroxamic acid]
- T: concentration of compound that results in 50% reduction in cell number in the mammalian melanocyte culture toxicity assay [1]: 641 µM
- IC50 (mammalian tyrosinase [2]): 15 µM
- IC50 (Mel Ab melanocyte [3]; Mus musculus, Mel-Ab): 576 µM

SMILES: CN(C)c1ccc(C(=O)NO)cc1 [ID-498, 4-Dimethylaminobenzo-hydroxamic acid]
- T: concentration of compound that results in 50% reduction in cell number in the mammalian melanocyte culture toxicity assay [1]: 136 µM
- IC50 (mammalian tyrosinase [2]): 2.2 µM
- IC50 (Mel Ab melanocyte [3]; Mus musculus, Mel-Ab): 44 µM

SMILES: COc1ccc(C(=O)NO)c(O)c1 [ID-462]
- T: concentration of compound that results in 50% reduction in cell number in the mammalian melanocyte culture toxicity assay [1]: >1000 µM
- IC50 (mammalian tyrosinase [2]): 3.6 µM
- IC50 (Mel Ab melanocyte [3]; Mus musculus, Mel-Ab): > 1000 µM

SMILES: O=C(NO)c1ccccc1O [ID-282, Salicylhydroxamic acid]
- T: concentration of compound that results in 50% reduction in cell number in the mammalian melanocyte culture toxicity assay [1]: 974 µM
- IC50 (mammalian tyrosinase [2]): 3.7 µM

SMILES: CCCCOc1ccc(C(=O)NO)cc1 [ID-477, 4-Butoxybenzohydroxamic acid]
- T: concentration of compound that results in 50% reduction in cell number in the mammalian melanocyte culture toxicity assay [1]: >554 µM
- IC50 (mammalian tyrosinase [2]): 12 µM
- IC50 (Mel Ab melanocyte [3]; Mus musculus, Mel-Ab): 326 µM

SMILES: COc1ccc(C(=O)NO)cc1 [ID-480, 4-Methoxybenzohydroxamic acid]
- T: concentration of compound that results in 50% reduction in cell number in the mammalian melanocyte culture toxicity assay [1]: 170 µM
- IC50 (mammalian tyrosinase [2]): 1.26 µM
- IC50 (Mel Ab melanocyte [3]; Mus musculus, Mel-Ab): 57 µM

SMILES: Cc1ccc(C(=O)NO)cc1 [ID-497, 4-Methylbenzohydroxamic acid]
- T: concentration of compound that results in 50% reduction in cell number in the mammalian melanocyte culture toxicity assay [1]: 160 µM
- IC50 (mammalian tyrosinase [2]): 0.29 µM
- IC50 (Mel Ab melanocyte [3]; Mus musculus, Mel-Ab): 45 µM

SMILES: COc1ccc(C(=O)N[O-])cc1OC.[K+] [ID-458, Potassium salt of 3,4-dimethoxy-benzohydroxamic acid]
- T: concentration of compound that results in 50% reduction in cell number in the mammalian melanocyte culture toxicity assay [1]: 624 µM
- IC50 (mammalian tyrosinase [2]): 23 µM
- IC50 (Mel Ab melanocyte [3]): 637 µM

SMILES: Cc1cccc(C(=O)N(C)O)c1 [ID-485, 3,N-Dimethylbenzohydroxamic acid]
- T: concentration of compound that results in 50% reduction in cell number in the mammalian melanocyte culture toxicity assay [1]: >1000 µM
- IC50 (mammalian tyrosinase [2]): 68 µM
- IC50 (Mel Ab melanocyte [3]; Mus musculus, Mel-Ab): > 1000 µM

SMILES: O=C(NO)c1cccc(Cl)c1 [ID-482, 3-Chlorobenzohydroxamic acid]
- T: concentration of compound that results in 50% reduction in cell number in the mammalian melanocyte culture toxicity assay [1]: 577 µM
- IC50 (mammalian tyrosinase [2]): < 0.25 µM
- IC50 (Mel Ab melanocyte [3]; Mus musculus, Mel-Ab): 40 µM

SMILES: O=C(NO)c1cccc(Oc2ccccc2)c1 [ID-500, 3-Phenoxybenzohydroxamic acid]
- T: concentration of compound that results in 50% reduction in cell number in the mammalian melanocyte culture toxicity assay [1]: >300 µM
- IC50 (mammalian tyrosinase [2]): 0.16 µM
- IC50 (Mel Ab melanocyte [3]; Mus musculus, Mel-Ab): 234 µM

SMILES: CC(=O)Nc1ccccc1C(=O)NO [ID-484, 2-Acetamidobenzohydroxamic acid]
- T: concentration of compound that results in 50% reduction in cell number in the mammalian melanocyte culture toxicity assay [1]: >1000 µM
- IC50 (mammalian tyrosinase [2]): > 231 µM
- IC50 (Mel Ab melanocyte [3]; Mus musculus, Mel-Ab): > 1000 µM

SMILES: O=C(NO)c1ccncc1 [ID-245]
- T: concentration of compound that results in 50% reduction in cell number in the mammalian melanocyte culture toxicity assay [1]: 566 µM
- IC50 (mammalian tyrosinase [2]): 3.2 µM
- IC50 (Mel Ab melanocyte [3]; Mus musculus, Mel-Ab): 183 µM
